Article PMC9259562 (Scientific Reports, 2022)
Square brackets hold non-standard residues; d marks the D form. Peptide text beside a SMILES is read from it. βAla = NCCC(=O)O

Tests used:
[1] = biological target: Stx2a A-subunit (Escherichia phage 933W, UniProt P09385); test: biochemical; assay type: binding, Escherichia coli
[2] = test system: Stx2a cytotoxicity in Vero cells; settings: 72 h

Chain of Stx2a A-subunit (P09385 23-319 limits assumed): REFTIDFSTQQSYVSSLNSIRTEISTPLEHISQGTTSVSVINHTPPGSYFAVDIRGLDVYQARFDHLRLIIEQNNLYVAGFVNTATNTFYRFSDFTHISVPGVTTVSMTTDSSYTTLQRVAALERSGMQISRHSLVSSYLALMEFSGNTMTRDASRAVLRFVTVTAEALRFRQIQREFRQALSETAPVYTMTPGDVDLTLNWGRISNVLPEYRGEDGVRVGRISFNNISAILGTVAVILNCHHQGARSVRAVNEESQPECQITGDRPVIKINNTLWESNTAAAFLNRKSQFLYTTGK

C[C@H](N)C(=O)N[C@@H](CCCNC(=N)N)C(=O)N[C@@H](CCCNC(=N)N)C(=O)N[C@@H](CCCNC(=N)N)C(=O)N[C@@H](CCCNC(=N)N)C(=O)N[C@@H](C)C(N)=O [AR4A-mono] (H-ARRRRA-NH2)
IC50 [1]: 2.27 µM | IC50 [2]: 51.6 ± 2.2 µM

CSCC[C@H](NC(=O)[C@H](C)NC(=O)[C@@H](N)CCSC)C(=O)N[C@@H](CCSC)C(=O)NCCC(=O)N[C@@H](CCCNC(=N)N)C(=O)N[C@@H](CCCNC(=N)N)C(=O)N[C@@H](CCCNC(=N)N)C(=O)N[C@@H](CCCNC(=N)N)C(=O)N[C@@H](C)C(N)=O [MMβA-mono, reference compound] (H-MAMM[βAla]RRRRA-NH2)
IC50 [2]: 21 ± 4 µM

C[C@H](NC(=O)[C@H](CCCNC(=N)N)NC(=O)[C@@H](N)CCCNC(=N)N)C(N)=O [R2A-mono] (H-Arg-Arg-Ala-NH2)
IC50 [1]: 132 µM | IC50 [2]: 66 ± 17 µM

N=C(N)NCCC[C@H](NC(=O)[C@H](CCCNC(=N)N)NC(=O)[C@@H](N)CCCNC(=N)N)C(N)=O [R3-mono] (H-Arg-Arg-Arg-NH2)
IC50 [1]: 3.68 µM | IC50 [2]: 78.7 ± 4.7 µM

C[C@H](NC(=O)[C@H](CCCNC(=N)N)NC(=O)[C@H](CCCNC(=N)N)NC(=O)[C@@H](N)CCCNC(=N)N)C(N)=O [R3A-mono] (H-RRRA-NH2)
IC50 [1]: 89.6 µM | IC50 [2]: 52.1 ± 3.5 µM

N=C(N)NCCC[C@H](NC(=O)[C@H](CCCNC(=N)N)NC(=O)[C@H](CCCNC(=N)N)NC(=O)[C@@H](N)CCCNC(=N)N)C(N)=O [R4-mono] (H-RRRR-NH2)
IC50 [1]: 0.387 µM | IC50 [2]: 55.4 ± 8.9 µM

C[C@H](NC(=O)[C@H](CCCNC(=N)N)NC(=O)[C@H](CCCNC(=N)N)NC(=O)[C@H](CCCNC(=N)N)NC(=O)[C@@H](N)CCCNC(=N)N)C(N)=O [R4A-mono] (H-RRRRA-NH2)
IC50 [2]: 56.8 ± 2.8 µM
